Source: patent publication US20030044946A1 (priority 2001, published 2003)
Where two headings read alike, the source gives them in different places.

Assays:
[1] = tested on: wild type cells (strain DBY746)
aconitase = aconitase inactivation after treatment of yeast cells; type: cell-based, Saccharomyces cerevisiae; details: wild type cells; 1 μM antimycin A or 1 mM paraquat; data not shown
Protocol: Cells were inoculated at an OD600 of 0.1 in SDC medium and harvested at the indicated times. Whole cell extracts were obtained by glass bead lysis under argon in 50 mM Tris 7.2, 150 mM NaCl, 5 mM EDTA, and 0.2 mM PMSF with an equal volume of 0.5 mm acid washed glass beads, and vortexing for 6 cycles of 30 seconds followed by 2 minutes of cooling. After centrifugation, the supernatants were aliquoted, flash frozen, and stored at −70° C. Because of the instability of 4Fe4S clusters in air, the extraction procedures were performed as rapidly as possible, under an inert atmosphere (argon). Furthermore, aliquots kept at −70° C. were only thawed immediately before the assay. Aconitase activity was measured spectrophotometrically as described (S. Melov, et al., Science 289, 1567-9 (2000)). Briefly, the linear absorbance change at 240 nm (cis-aconitate disappearance) was followed in a reaction mixture containing 1 mM cis-aconitate, 0.5 M NaCl, and 0.1 M Tris 7.4. For iron-sulfur cluster reactivation experiments, 1 mM ferric sulfate and 1 mM sodium sulfide (Na2S) was added to the cuvette containing all the reagents required for the aconitase assay. Activity was measured as described above.

ras2Δ (EG252) cells = details: ras2 mutants; paraquat 1 mM, 7-day treatment

Q: `C[n+]1ccc(-c2cc[n+](C)cc2)cc1` [paraquat] was tested. Which “effect on survival (viability) of wild type cells” value [1] did it give?
A: early viability loss

Q: And the “toxicity to wild type cells” value [1]?
A: toxic

Q: And the “survival after paraquat treatment” value ([1]; Saccharomyces cerevisiae)?
A: 5%

Q: And the effect on aconitase (aconitase)?
A: reversibly inactivates aconitase

Q: What about the “initial viability retained after paraquat treatment” value (ras2Δ (EG252) cells) of the same molecule?
A: over 70%

Q: What about the “toxicity to sod2Δ mutants” value (sod2Δ mutants; effect on life span) of the same molecule?
A: particularly toxic

Q: What does the source list for antimycin A?
A: effect on survival (viability) of wild type cells [1]: early viability loss; toxicity to wild type cells [1]: toxic; effect on aconitase (aconitase): reversibly inactivates aconitase; toxicity to sod2Δ mutants (sod2Δ mutants): particularly toxic
